Measured values reported in PubChem BioAssay AID1259407 (Chemical Carcinogenesis Research Information System (CCRIS), 2018).
Activity calls are given as the source filed them. How the calls were made is not given here.

System: CCRIS mutagenicity, Ames/micronucleus/aberration tests
Test: CCRIS mutagenicity studies

O=C(O)CO.[NH2-].[NH2-].[Pt+2]
mutagenic call (Test System: AMES SALMONELLA TYPHIMURIUM, Strain/Indicator: TA98, Metabolic Activation: NONE, Method: PREINCUBATION): active; positive | mutagenic call (Test System: AMES SALMONELLA TYPHIMURIUM, Strain/Indicator: TA98, Metabolic Activation: RAT, LIVER, S-9, PHENOBARBITAL AND 5,6-BENZOFLAVONE, Method: PREINCUBATION): active; positive | mutagenic call (Test System: AMES SALMONELLA TYPHIMURIUM, Strain/Indicator: TA100, Metabolic Activation: NONE, Method: PREINCUBATION): active; positive | mutagenic call (Test System: AMES SALMONELLA TYPHIMURIUM, Strain/Indicator: TA100, Metabolic Activation: RAT, LIVER, S-9, PHENOBARBITAL AND 5,6-BENZOFLAVONE, Method: PREINCUBATION): active; positive | mutagenic call (Test System: AMES SALMONELLA TYPHIMURIUM, Strain/Indicator: TA1535, Metabolic Activation: NONE, Method: PREINCUBATION): inactive; negative | mutagenic call (Test System: AMES SALMONELLA TYPHIMURIUM, Strain/Indicator: TA1535, Metabolic Activation: RAT, LIVER, S-9, PHENOBARBITAL AND 5,6-BENZOFLAVONE, Method: PREINCUBATION): inactive; negative | mutagenic call (Test System: AMES SALMONELLA TYPHIMURIUM, Strain/Indicator: TA1537, Metabolic Activation: NONE, Method: PREINCUBATION): inactive; negative | mutagenic call (Test System: AMES SALMONELLA TYPHIMURIUM, Strain/Indicator: TA1537, Metabolic Activation: RAT, LIVER, S-9, PHENOBARBITAL AND 5,6-BENZOFLAVONE, Method: PREINCUBATION): inactive; negative | mutagenic call (Test System: E.COLI, Strain/Indicator: WP2 UVRA, Metabolic Activation: NONE, Method: PREINCUBATION): inactive; negative | mutagenic call (Test System: E.COLI, Strain/Indicator: WP2 UVRA, Metabolic Activation: RAT, LIVER, S-9 PHENOBARBITAL AND 5,6-BENZOFLAVONE, Method: PREINCUBATION): inactive; negative

O=P(OCCC(Br)CBr)(OCCC(Br)CBr)OCCC(Br)CBr (stereo not drawn)
mutagenic call (Test System: AMES SALMONELLA TYPHIMURIUM, Strain/Indicator: TA100, Metabolic Activation: RAT, LIVER, MICROSOMES, PHENOBARBITAL, Method: PREINCUBATION): inactive; negative | mutagenic call (Test System: AMES SALMONELLA TYPHIMURIUM, Strain/Indicator: TA100, Metabolic Activation: RAT, LIVER, MICROSOMES, Method: PREINCUBATION): inactive; negative

O=[N+]([O-])c1ccc(-c2nc3n(c2[N+](=O)[O-])CCS3)cc1
mutagenic call (Test System: AMES SALMONELLA TYPHIMURIUM, Strain/Indicator: TA98, Metabolic Activation: NONE, Method: STANDARD PLATE): active; positive | mutagenic call (Test System: AMES SALMONELLA TYPHIMURIUM, Strain/Indicator: TA100, Metabolic Activation: NONE, Method: STANDARD PLATE): active; positive | mutagenic call (Test System: AMES SALMONELLA TYPHIMURIUM, Strain/Indicator: TA1535, Metabolic Activation: NONE, Method: STANDARD PLATE): inactive; negative | mutagenic call (Test System: AMES SALMONELLA TYPHIMURIUM, Strain/Indicator: TA1537, Metabolic Activation: NONE, Method: STANDARD PLATE): inactive; negative | mutagenic call (Test System: AMES SALMONELLA TYPHIMURIUM, Strain/Indicator: TA1538, Metabolic Activation: NONE, Method: STANDARD PLATE): active; positive

Cc1cccc(OC(=O)N(C)N=O)c1
mutagenic call (Test System: E. COLI WP2, Strain/Indicator: WP2, Metabolic Activation: NONE, Method: STANDARD PLATE): active; positive
